From ChEMBL document CHEMBL2331215, “Discovery of novel N-substituted oxindoles as selective m1 and m4 muscarinic acetylcholine receptors partial agonists” (ACS Med Chem Lett, 2013)
The source made the active and inactive calls. The rule behind the calls is not given here.

Tests used:
Rattus norvegicus [1] = assay: Antipsychotic activity in Sprague-Dawley rats assessed as reversal of methamphetamine-induced hyperlocomotion at 1 to 10 mg/kg, sc administered 30 mins prior to methamphetamine injection measured for 80 mins from 10 mins after methamphetamine challenge; format: functional, organism-based
Cynomolgus monkey [2] = assay: Induction of salivation in sc dosed cynomolgus monkey; format: organism-based, Macaca fascicularis; settings: in vivo
[3] = target: T1, Muscarinic acetylcholine receptor M5 (Homo sapiens) (UniProt P08912); assay: Partial agonist activity at human M5 receptor in CHO cells assessed as calcium mobilization at 3 uM after 60 mins by FLIPR assay; format: functional, cell-based
T1 sequence (whole entry): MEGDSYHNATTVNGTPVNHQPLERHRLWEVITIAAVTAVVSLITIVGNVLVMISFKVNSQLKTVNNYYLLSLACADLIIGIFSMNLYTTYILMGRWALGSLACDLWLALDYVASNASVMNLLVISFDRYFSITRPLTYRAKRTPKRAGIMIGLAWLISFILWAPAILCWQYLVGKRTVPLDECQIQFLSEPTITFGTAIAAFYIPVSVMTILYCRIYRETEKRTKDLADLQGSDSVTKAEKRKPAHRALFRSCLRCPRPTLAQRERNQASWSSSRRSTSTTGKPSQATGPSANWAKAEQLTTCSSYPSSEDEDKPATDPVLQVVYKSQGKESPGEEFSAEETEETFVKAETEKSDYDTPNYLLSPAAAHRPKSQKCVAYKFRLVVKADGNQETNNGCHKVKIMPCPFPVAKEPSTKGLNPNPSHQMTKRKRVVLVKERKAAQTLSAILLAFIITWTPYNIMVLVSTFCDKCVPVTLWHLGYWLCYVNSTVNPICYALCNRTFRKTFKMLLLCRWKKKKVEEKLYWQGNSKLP

[4] = target: Muscarinic acetylcholine receptor M3 (Homo sapiens) (UniProt P20309); assay: Partial agonist activity at human M3 receptor in CHO cells assessed as calcium mobilization at 3 uM after 60 mins by FLIPR assay; format: functional, cell-based
[5] = target: Voltage-gated inwardly rectifying potassium channel KCNH2 (Homo sapiens, UniProt Q12809); assay: Inhibition of human ERG assessed as decrease in tail current amplitude measured after 5 mins by whole cell patch clamp technique
[6] = target: T2, Muscarinic acetylcholine receptor M1 (Homo sapiens, UniProt P11229); assay: (§1) Partial agonist activity at human M1 receptor in CHO cells assessed as calcium mobilization after 60 mins by FLIPR assay; format: functional, cell-based
T2 sequence (P11229 whole entry): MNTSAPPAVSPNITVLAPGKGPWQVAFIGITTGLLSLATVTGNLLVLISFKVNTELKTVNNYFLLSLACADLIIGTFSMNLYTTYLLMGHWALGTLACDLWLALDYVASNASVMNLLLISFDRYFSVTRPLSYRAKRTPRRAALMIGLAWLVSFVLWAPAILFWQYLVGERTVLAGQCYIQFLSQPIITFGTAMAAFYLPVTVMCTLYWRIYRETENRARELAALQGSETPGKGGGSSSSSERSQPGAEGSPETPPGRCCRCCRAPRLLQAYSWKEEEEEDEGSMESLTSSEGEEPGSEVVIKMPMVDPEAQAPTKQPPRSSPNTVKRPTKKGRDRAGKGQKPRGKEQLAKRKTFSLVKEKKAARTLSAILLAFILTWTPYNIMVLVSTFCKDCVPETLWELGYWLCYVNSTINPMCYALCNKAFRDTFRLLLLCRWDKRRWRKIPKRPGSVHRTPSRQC

[7] = target: T3, Muscarinic acetylcholine receptor M1 (Homo sapiens) (UniProt P11229); assay: as §1; format: functional, cell-based
T3 sequence (whole entry): T2 sequence (P11229 whole entry)

[8] = target: T4, Muscarinic acetylcholine receptor M4 (Homo sapiens) (UniProt P08173); assay: (§2) Partial agonist activity at human M4 receptor co-expressed with Galpha16 in CHO cells assessed as calcium mobilization after 60 mins by FLIPR assay; format: functional, cell-based
T4 sequence (whole entry): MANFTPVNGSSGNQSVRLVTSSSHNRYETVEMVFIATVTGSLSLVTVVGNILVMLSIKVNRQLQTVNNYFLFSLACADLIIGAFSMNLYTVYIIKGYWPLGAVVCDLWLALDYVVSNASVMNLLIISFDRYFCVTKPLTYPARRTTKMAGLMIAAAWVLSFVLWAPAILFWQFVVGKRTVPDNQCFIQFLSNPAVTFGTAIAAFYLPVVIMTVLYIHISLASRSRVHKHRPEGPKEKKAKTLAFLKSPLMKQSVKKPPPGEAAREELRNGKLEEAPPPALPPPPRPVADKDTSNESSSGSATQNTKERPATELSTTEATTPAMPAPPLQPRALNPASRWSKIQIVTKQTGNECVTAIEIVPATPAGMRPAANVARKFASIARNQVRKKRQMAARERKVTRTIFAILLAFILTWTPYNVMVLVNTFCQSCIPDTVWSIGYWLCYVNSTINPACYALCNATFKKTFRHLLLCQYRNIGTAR

[9] = target: T5, Muscarinic acetylcholine receptor M4 (Homo sapiens, UniProt P08173); assay: as §2; format: functional, cell-based
T5 sequence (P08173 whole entry): T4 sequence (whole entry)

Cynomolgus monkey [10] = assay: Cardiotoxicity in telemetered cynomolgus monkey assessed as increase in heart rate at 1.5 to 6 mg/kg, sc measured after 1 to 4 hrs by telemetry method; format: toxicity, organism-based, Macaca fascicularis; parameters: route subcutaneous; settings: in vivo
Mus musculus [11] = assay: Antipsychotic activity in ddY mouse assessed as reversal of apomorphine-induced climbing behaviour at 0.3 to 3 mg/kg, sc administered 20 mins prior to apomorphine injection measured for 20 mins from 10 mins after apomorphine challenge; format: functional, organism-based
[12] = target: T6, Muscarinic acetylcholine receptor M2 (Homo sapiens) (UniProt P08172); assay: Partial agonist activity at human M2 receptor co-expressed with Galpha16 in CHO cells assessed as calcium mobilization at 30 uM after 60 mins by FLIPR assay; format: functional, cell-based
T6 sequence (whole entry): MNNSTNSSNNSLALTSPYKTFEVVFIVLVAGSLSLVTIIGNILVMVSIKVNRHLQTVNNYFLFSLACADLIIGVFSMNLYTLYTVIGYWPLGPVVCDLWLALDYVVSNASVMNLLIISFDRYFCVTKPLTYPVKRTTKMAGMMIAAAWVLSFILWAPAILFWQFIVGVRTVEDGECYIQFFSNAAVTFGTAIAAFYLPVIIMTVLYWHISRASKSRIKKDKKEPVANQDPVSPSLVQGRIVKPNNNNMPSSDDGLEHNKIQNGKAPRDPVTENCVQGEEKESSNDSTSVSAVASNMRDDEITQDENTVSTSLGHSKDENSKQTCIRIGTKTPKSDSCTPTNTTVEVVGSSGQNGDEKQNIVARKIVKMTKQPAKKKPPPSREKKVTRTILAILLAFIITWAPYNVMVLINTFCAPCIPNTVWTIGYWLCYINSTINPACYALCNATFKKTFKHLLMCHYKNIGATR

Rattus norvegicus [13] = assay: Potentiation of risperidone-induced catalepsy in Sprague-Dawley rats at 10 mg/kg, sc administered 15 mins after risperidone injection measured after 45 mins; format: ADME, organism-based; parameters: dose 10 mg/kg, route subcutaneous; settings: in vivo, 0.75 h
[14] = target: T6, Muscarinic acetylcholine receptor M2 (Homo sapiens); assay: Partial agonist activity at human M2 receptor co-expressed with Galpha16 in CHO cells assessed as calcium mobilization at 3 uM after 60 mins by FLIPR assay; format: functional, cell-based
Cynomolgus monkey [15] = assay: Cardiotoxicity in telemetered cynomolgus monkey assessed as prolongation of QTc interval at 1.5 to 6 mg/kg, sc measured after 1 to 4 hrs by telemetry method; format: toxicity, organism-based, Macaca fascicularis; parameters: route subcutaneous; settings: in vivo
Mus musculus [16] = assay: Induction of seizures in ddY mouse at 100 mg/kg, sc measured for 45 mins after drug injection; format: organism-based; parameters: dose 100 mg/kg, route subcutaneous; settings: in vivo, 0.75 h

Chain of Muscarinic acetylcholine receptor M3 (Homo sapiens) (P20309 whole entry, looked up): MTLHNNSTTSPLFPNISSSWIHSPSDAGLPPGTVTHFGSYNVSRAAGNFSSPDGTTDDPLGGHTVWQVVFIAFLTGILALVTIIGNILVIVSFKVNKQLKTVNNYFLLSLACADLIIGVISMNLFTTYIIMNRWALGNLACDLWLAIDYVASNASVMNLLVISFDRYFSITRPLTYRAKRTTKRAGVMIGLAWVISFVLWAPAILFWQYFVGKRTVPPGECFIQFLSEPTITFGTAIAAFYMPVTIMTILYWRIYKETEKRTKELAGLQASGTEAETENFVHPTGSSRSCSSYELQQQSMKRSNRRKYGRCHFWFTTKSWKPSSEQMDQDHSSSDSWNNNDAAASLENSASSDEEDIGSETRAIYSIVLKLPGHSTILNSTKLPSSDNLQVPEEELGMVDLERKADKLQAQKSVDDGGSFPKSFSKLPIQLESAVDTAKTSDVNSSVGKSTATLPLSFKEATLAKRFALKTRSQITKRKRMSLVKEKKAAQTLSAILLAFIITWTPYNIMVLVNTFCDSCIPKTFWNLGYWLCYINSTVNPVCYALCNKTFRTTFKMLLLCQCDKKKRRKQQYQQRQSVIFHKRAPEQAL
Chain of Voltage-gated inwardly rectifying potassium channel KCNH2 (Q12809 whole entry): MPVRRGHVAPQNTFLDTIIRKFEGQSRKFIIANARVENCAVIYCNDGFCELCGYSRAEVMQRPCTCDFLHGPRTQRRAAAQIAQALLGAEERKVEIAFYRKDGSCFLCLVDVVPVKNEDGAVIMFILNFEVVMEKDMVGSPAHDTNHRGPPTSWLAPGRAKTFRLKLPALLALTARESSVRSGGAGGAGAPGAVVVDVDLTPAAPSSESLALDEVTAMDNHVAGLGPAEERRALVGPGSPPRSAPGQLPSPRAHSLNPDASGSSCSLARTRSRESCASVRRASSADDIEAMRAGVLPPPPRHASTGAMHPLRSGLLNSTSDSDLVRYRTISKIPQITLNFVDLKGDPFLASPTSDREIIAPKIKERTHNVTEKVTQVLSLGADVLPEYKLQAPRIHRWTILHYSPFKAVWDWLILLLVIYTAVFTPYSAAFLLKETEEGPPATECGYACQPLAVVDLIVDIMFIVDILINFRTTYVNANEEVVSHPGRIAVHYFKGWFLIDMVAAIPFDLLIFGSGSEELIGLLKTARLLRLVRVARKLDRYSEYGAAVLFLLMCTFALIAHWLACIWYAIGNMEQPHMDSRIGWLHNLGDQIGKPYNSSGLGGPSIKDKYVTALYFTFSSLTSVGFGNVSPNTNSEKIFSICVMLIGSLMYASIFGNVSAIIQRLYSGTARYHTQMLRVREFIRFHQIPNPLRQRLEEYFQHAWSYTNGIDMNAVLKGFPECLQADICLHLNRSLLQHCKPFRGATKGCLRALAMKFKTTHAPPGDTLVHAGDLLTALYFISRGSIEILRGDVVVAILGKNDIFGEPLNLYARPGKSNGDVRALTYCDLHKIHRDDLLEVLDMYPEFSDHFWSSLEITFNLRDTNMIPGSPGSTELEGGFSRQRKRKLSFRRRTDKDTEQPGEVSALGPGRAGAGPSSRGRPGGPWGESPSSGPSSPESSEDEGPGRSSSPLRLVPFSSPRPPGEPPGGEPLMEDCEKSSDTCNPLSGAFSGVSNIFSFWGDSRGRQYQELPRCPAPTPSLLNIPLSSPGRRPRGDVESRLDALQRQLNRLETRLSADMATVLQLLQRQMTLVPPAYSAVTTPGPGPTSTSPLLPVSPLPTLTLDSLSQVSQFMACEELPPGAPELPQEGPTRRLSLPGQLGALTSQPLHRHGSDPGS

CCOC(=O)N1[C@@H]2CC[C@H]1C[C@H](CN1CC[C@H](N3C(=O)Cc4ccccc43)C1)C2 was tested, and the inhibition (Rattus norvegicus [1]) was “Active”, the Activity (Cynomolgus monkey [2]) was “Toxic” and the Activity [3] was 17%. It also gave an Activity [4] of 7%, an IC50 [5] of 2400 nM and an EC50 [6] of 12 nM. It also gave an Intrinsic activity [7] of 60%, an Intrinsic activity [8] of 42% and an EC50 [9] of 29 nM. For the same compound, the Activity (Cynomolgus monkey [10]) was “Toxic”, the inhibition (Mus musculus [11]) was “Active” and the Activity [12] was “inactive”. The Activity (Rattus norvegicus [13]) was “Non-toxic”, the Activity [14] was 25% and the Activity (Cynomolgus monkey [15]) was “Non-toxic”. For the same compound, the Activity (Mus musculus [16]) was “Non-toxic”.
